From patent US8232401B2 (Japan Tobacco Inc., priority 2002, dated 2012)

Target: T1, HIV integrase (Human immunodeficiency virus type 1 group M subtype B, UniProt P12497, F1332H)
T1 construct: HIV integrase full length gene; made in house; host or cells: Escherichia coli BL21(DE3)
Test: Determination of enzyme (HIV integrase) inhibitory activity (strand transfer, microtiter plate, absorbance at 450 nm)
Assay type: biochemical, HIV (Human Immunodeficiency Virus (type 1))
Conditions: recombinant HIV integrase (F185H) expressed in E. coli; donor DNA on streptavidin plate, digoxigenin target DNA; 37° C.
Method: The following explains evaluation methods of the HIV integrase inhibitory activity of the compound of the present invention.
(i) Construction of Recombinant Integrase Gene Expression System
(ii) Production and Purification of Integrase Protein
Escherichia coli recombinant BL21(DE3) transformed with plasmid pET21a-IN-F185H obtained in (i) was shake cultured at 30° C. in a liquid medium containing ampicillin. When the culture reached the logarithmic growth phase, isopropyl-β-D-thiogalactopyranoside was added to promote expression of integrase gene. The culture was continued for 3 hrs to promote accumulation of the integrase protein. The recombinant E. coli was collected in pellets by centrifugal separation and preserved at −80° C.
The E. coli was suspended in Lysis buffer (20 mM HEPES (pH 7.5), 5 mM DTT, 10 mM CHAPS, 10% glycerol) containing 1M sodium chloride and subjected to repeat pressurization and depressurization for rupture, and centrifugal separation at 4° C., 40,000×g, 60 min to recover a water-soluble fraction (supernatant). This was diluted 10-fold with Lysis buffer free of sodium chloride, mixed with SP-Sepharose (Pharmacia Corporation) and stirred at 4° C. for 60 min to allow adsorption of integrase protein to the resin. The resin was washed with Lysis buffer containing 100 mM sodium chloride and the integrase protein was eluted with Lysis buffer containing 1M sodium chloride.
The eluted integrase protein solution was applied to a Superdex 75 (Pharmacia Corporation) column for gel filtration. The protein was eluted with Lysis buffer containing 1M sodium chloride.
The obtained fractions of the integrate protein were collected and preserved at −80° C.
(iii) Preparation of DNA Solution
The following DNA synthesized by Greiner was dissolved in TE buffer (10 mM Tris-hydrochloric acid (pH 8.0), 1 mM EDTA) and mixed with donor DNA, target DNA, each complementary strand (+ and − strands) to 1 μM. The mixture was heated at 95° C. for 5 min, 80° C. for 10 min, 70° C. for 10 min, 60° C. for 10 min, 50° C. for 10 min and 40° C. for 10 min and preserved at 25° C. to give a double stranded DNA, which was used for the test. Donor DNA (− strand having biotin attached to the 5′ terminal)
(iv) Determination of Enzyme (HIV Integrase) Inhibitory activity
The donor DNA was diluted with TE buffer to 10 nM, of which 50 μl was added to each well of streptavidin-coated microtiter plate (Roche) and allowed to adsorb at 37° C. for 60 min. The DNA was washed with phosphate buffer (Dulbecco PBS, Sanko Junyaku Co., Ltd.) containing 0.1% Tween 20 and phosphate buffer. Then, a reaction mixture (70 μl) having the following composition, a test substance (10 μl) diluted with the reaction mixture and […] integrase protein (10 μl) were added to each well and reacted at 37° C. for 60 min.
Then, 50 nM target DNA (1.0 μl) was added, reacted at 37° C. for 10 min and washed with phosphate buffer containing 0.1% Tween 20 to stop the reaction.
Then, 100 mU/ml peroxidase labeled anti-digoxigenin antibody solution (Roche, 100 μl) was added, and the mixture was reacted at 37° C. for 60 min, followed by washing with phosphate buffer containing 0.1% Tween 20.
A peroxidase color solution (Bio Rad, 100 μl) was added and allowed to react at room temperature for 4 min. The color reaction was stopped by adding 1N sulfuric acid (100 μl). The absorbance at 450 nm was measured.
The HIV integrase inhibitory activity (IC50) of the compound of the present invention was calculated from the inhibition rate according to the following formula. […] Evaluation of Antiviral Activity

In the case of `COc1cc(Cc2cccc(Cl)c2Cl)cc2c(=O)c(C(=O)O)cn(CCO)c12` [Example 3-14, 6-(2,3-Dichlorobenzyl)-1-(2-hydroxyethyl)-8-methoxy-4-oxo-1,4-dihydroquinoline-3-carboxylic acid], the IC50 is reported as 14 nM.
`CCC[C@@H](CO)n1cc(C(=O)O)c(=O)c2cc(Cc3cccc(Cl)c3F)c(OC(C)C)cc21` [Example 4-35] gave an IC50 of 4.3 nM.
In the case of `O=C(O)c1cn(CCO)c2ccc(Cc3c(F)cccc3Cl)cc2c1=O` [Example 1-33, 6-(2-Chloro-6-fluorobenzyl)-1-(2-hydroxyethyl)-4-oxo-1,4-dihydroquinoline-3-carboxylic acid], the IC50 is reported as 140 nM.
`O=C(O)c1cn(CCc2ccccn2)c2ccc(Cc3cccc(Cl)c3Cl)cc2c1=O` [Example 1-45, 6-(2,3-Dichlorobenzyl)-4-oxo-1-(2-pyridin-2-ylethyl)-1,4-dihydroquinoline-3-carboxylic acid] was tested, and the IC50 was 210 nM.
`O=C(O)c1cn(CCO)c2cc(OCCO)c(Cc3cccc(Cl)c3F)cc2c1=O` [Example 3-76, 6-(3-Chloro-2-fluorobenzyl)-1-(2-hydroxyethyl)-7-(2-hydroxyethyloxy)-4-oxo-1,4-dihydroquinoline-3-carboxylic acid] was tested, and the IC50 was 8.5 nM.
`CC(C)n1cc(C(=O)O)c(=O)c2cc(Cc3cccc(Cl)c3Cl)ccc21` [Example 1-8, 6-(2,3-Dichlorobenzyl)-1-isopropyl-4-oxo-1,4-dihydroquinoline-3-carboxylic acid] was tested, and the IC50 was 46 nM.
In the case of `N#Cc1cc2c(cc1Cc1cccc(Cl)c1Cl)c(=O)c(C(=O)O)cn2CCO` [Example 3-27, 7-Cyano-6-(2,3-dichlorobenzyl)-1-(2-hydroxyethyl)-4-oxo-1,4-dihydroquinoline-3-carboxylic acid], the IC50 is reported as 75 nM.
`O=C(O)c1cn(CCO)c2ccc(Cc3ccc(F)cc3Cl)cc2c1=O` [Example 1-51, 6-(2-Chloro-4-fluorobenzyl)-1-(2-hydroxyethyl)-4-oxo-1,4-dihydroquinoline-3-carboxylic acid] showed an IC50 of 180 nM.
`Cn1cc(C(=O)O)c(=O)c2cc(Cc3cccc(Cl)c3Cl)ccc21` [Example 1-36, 6-(2,3-Dichlorobenzyl)-1-methyl-4-oxo-1,4-dihydroquinoline-3-carboxylic acid] was tested, and the IC50 was 180 nM.
Work on `O=C(O)c1cn(CCCCO)c2ccc(Cc3cccc(Cl)c3Cl)cc2c1=O` [Example 1-21, 6-(2,3-Dichlorobenzyl)-1-(4-hydroxybutyl)-4-oxo-1,4-dihydroquinoline-3-carboxylic acid] yielded an IC50 of 74 nM.
For `CCN(CC)c1cc(Cc2cccc(Cl)c2F)cc2c(=O)c(C(=O)O)cn(CCO)c12` [Example 3-64, 6-(3-Chloro-2-fluorobenzyl)-8-diethylamino-1-(2-hydroxyethyl)-4-oxo-1,4-dihydroquinoline-3-carboxylic acid], the IC50 was 18 nM.
`O=C(O)c1cn(CCO)c2ncc(Cc3cccc(Cl)c3Cl)cc2c1=O` [Example 3-86] was tested, and the IC50 was 140 nM.
For `O=C(O)c1cn(C2CCC2)c2ccc(Cc3cccc(Cl)c3Cl)cc2c1=O` [Example 3-12, 1-Cyclobutyl-6-(2,3-dichlorobenzyl)-4-oxo-1,4-dihydroquinoline-3-carboxylic acid], the IC50 was 16 nM.
Compound `COc1cc(Cc2cccc(Cl)c2F)cc2c(=O)c(C(=O)O)cn([C@H](CO)C3CCCCC3)c12` [Example 4-44, (S)-6-(3-Chloro-2-fluorobenzyl)-1-(1-cyclohexyl-2-hydroxyethyl)-8-methoxy-4-oxo-1,4-dihydroquinoline-3-carboxylic acid] has an IC50 of 2.4 nM.
In the case of `Cc1cccc(Cc2ccc3c(c2)c(=O)c(C(=O)O)cn3CCO)c1Cl` [Example 1-79, 6-(2-Chloro-3-methylbenzyl)-1-(2-hydroxyethyl)-4-oxo-1,4-dihydroquinoline-3-carboxylic acid], the IC50 is reported as 77 nM.
`O=C(O)c1cn(CCO)c2ccc(Cc3ccccc3OC(F)(F)F)cc2c1=O` [Example 1-93, 1-(2-Hydroxyethyl)-4-oxo-6-(2-trifluoromethyloxybenzyl)-1,4-dihydroquinoline-3-carboxylic acid] gave an IC50 of 370 nM.
Work on `O=C(O)c1cn(CCCO)c2ccc(Cc3cccc(Cl)c3Cl)cc2c1=O` [Example 1-25, 6-(2,3-Dichlorobenzyl)-1-(3-hydroxypropyl)-4-oxo-1,4-dihydroquinoline-3-carboxylic acid] yielded an IC50 of 160 nM.
With `O=C(O)Cn1cc(C(=O)O)c(=O)c2cc(Cc3cccc(Cl)c3Cl)ccc21` [Example 1-28, 1-Carboxymethyl-6-(2,3-dichlorobenzyl)-4-oxo-1,4-dihydroquinoline-3-carboxylic acid] the IC50 was 59 nM.
For `O=C(O)c1cn(CCO)c2ccc(Cc3ccc(F)c(Cl)c3F)cc2c1=O` [Example 3-17, 6-(3-Chloro-2,4-difluorobenzyl)-1-(2-hydroxyethyl)-4-oxo-1,4-dihydroquinoline-3-carboxylic acid], the IC50 was 13 nM.
Compound `NC(=O)Cn1cc(C(=O)O)c(=O)c2cc(Cc3cccc(Cl)c3Cl)ccc21` [Example 1-7, 1-Carbamoylmethyl-6-(2,3-Dichlorobenzyl)-4-oxo-1,4-dihydroquinoline-3-carboxylic acid] has an IC50 of 67 nM.
`O=C(O)c1cn(CCO)c2ccc(Cc3ccccc3)cc2c1=O` [Example 1-78] gave an IC50 of 590 nM.
`O=C(O)c1cn(CCO)c2ccc(Cc3c(F)cccc3Cl)cc2c1=O` [Example 1-64] was tested, and the IC50 was 56 nM.
For `CC[C@@H](CO)n1cc(C(=O)O)c(=O)c2cc(Cc3cccc(Cl)c3F)c(SC)cc21` [Example 4-29, (S)-6-(3-Chloro-2-fluorobenzyl)-1-[1-(hydroxymethyl)propyl]-7-methylsulfanyl-4-oxo-1,4-dihydroquinoline-3-carboxylic acid], the IC50 was 4.5 nM.
`O=C(O)c1cn(CCO)c2c(C(F)(F)F)cc(Cc3cccc(Cl)c3F)cc2c1=O` [Example 3-25, 6-(3-Chloro-2-fluorobenzyl)-1-(2-hydroxyethyl)-4-oxo-8-trifluoromethyl-1,4-dihydroquinoline-3-carboxylic acid] gave an IC50 of 69 nM.
For `CNS(=O)(=O)Cn1cc(C(=O)O)c(=O)c2cc(Cc3cccc(Cl)c3Cl)ccc21` [Example 1-71, 6-(2,3-Dichlorobenzyl)-1-methylsulfamoylmethyl-4-oxo-1,4-dihydroquinoline-3-carboxylic acid], the IC50 was 13 nM.
Work on `CC[C@@H](CO)n1cc(C(=O)O)c(=O)c2cc(Cc3cccc(Cl)c3F)c(OC)cc21` [Example 3-73, (S)-6-(3-Chloro-2-fluorobenzyl)-1-[1-(hydroxymethyl)propyl]-7-methoxy-4-oxo-1,4-dihydroquinoline-3-carboxylic acid] yielded an IC50 of 3.3 nM.
`O=C(O)c1cn([C@H](CO)C2CCCCC2)c2ccc(Cc3cccc(Cl)c3F)cc2c1=O` [Example 4-18, (S)-6-(3-Chloro-2-fluorobenzyl)-1-(1-cyclohexyl-2-hydroxyethyl)-4-oxo-1,4-dihydroquinoline-3-carboxylic acid] was tested, and the IC50 was 2 nM.
For `CSCCn1cc(C(=O)O)c(=O)c2cc(Cc3cccc(Cl)c3Cl)ccc21` [Example 1-32, 6-(2,3-Dichlorobenzyl)-1-(2-methylsulfanylethyl)-4-oxo-1,4-dihydroquinoline-3-carboxylic acid], the IC50 was 68 nM.
In the case of `O=C(O)c1cn(CCO)c2c(F)cc(Cc3cccc(Cl)c3Cl)cc2c1=O` [Example 1-2, 6-(2,3-dichlorobenzyl)-1,4-dihydro-8-fluoro-1-(2-hydroxyethyl)-4-oxo-3-quinolinecarboxylic acid], the IC50 is reported as 33 nM.
`O=C(O)c1cn(CCc2ccccc2)c2ccc(Cc3cccc(Cl)c3Cl)cc2c1=O` [Example 1-16, 6-(2,3-Dichlorobenzyl)-4-oxo-1-phenethyl-1,4-dihydroquinoline-3-carboxylic acid] was tested, and the IC50 was 32 nM.
Compound `CCC[C@@H](CO)n1cc(C(=O)O)c(=O)c2cc(Cc3cccc(Cl)c3F)cc(OCC)c21` [Example 4-48, (S)-6-(3-Chloro-2-fluorobenzyl)-8-ethoxy-1-[1-(hydroxymethyl)butyl]-4-oxo-1,4-dihydroquinoline-3-carboxylic acid] has an IC50 of 3 nM.
